Assay results from patent publication US8551722B2, “Time-course measurement of enzymatic activity corrected for impacts of disturbances relating to the reaction of the enzyme with a substrate” (Synapse B.V., priority 2008, dated 2013).
Residues, ends and D or L forms follow the SMILES beside them. *: point of attachment. AMC = Cc1cc(=O)oc2cc(N*)ccc12; Cbz = O=C(OCc1ccccc1)*; Bz = O=C(c1ccccc1)*

Columns and labels:
Format in all cases: biochemical
[1] = biological target: T1, thrombin (Homo sapiens, UniProt P00734); experiment: Diagnostic plot (dOD/dt against OD) of chromogenic substrates at fixed thrombin activity, to judge use in thrombin generation measurement
Experimental: A suitable chromogenic substrate, i.e. a substrate from which a chromogenic group is split when acted upon by the enzyme to be measured (thrombin, plasmin etc), is added to the reaction mixture. Unless otherwise indicated, for thrombin generation, this mixture consists of four parts of defibrinated plasma, one part of trigger solution and one part of start solution. The reactions can be carried out in a spectrophotometer cuvette, a 96 well plate to be read in a photometric well-plate reader or in a laboratory automaton as e.g. the Cobas Bio and Cobas Fara centrifugal analysers (F. Hoffmann-La Roche, Basel, Switzerland). In short in any device capable of measuring the optical density at 405 nm at 30 s intervals during 10 to 30 min.
Typically 80 μL of defibrinated plasma with 20 μL of rTF without Ca2+ are incubated at 37° C., during a time sufficient for temperature equilibration. Thrombin generation is started by adding 20 μL of a pre-warmed start solution containing 100 mM CaCl2 and 3 mM substrate. After the start of the reaction the optical density at 405 nm is recorded at intervals of maximally 30 s for the time required (≧15 min). Depending upon the measuring device a multiple of the volumes can be used.
This amount is determined by the maximal enzyme potential (η) that to be expected in the experiments. […] In the experiment to obtain the diagnostic plot the enzyme concentration (E) is constant and known. So the enzyme potential (η) is known and can be rendered In the diagnostic plot (curved thin lines in FIG. 8).
In this table η indicates the enzyme potential that is to be expected in the thrombingeneration experiment and limit indicates the limit of enzyme potential that can be measured with the indicated substrate at the indicated concentration.
In FIG. 8 it is seen that straight lines fit through the data over the whole range of ODs measured for three of the four substrates tested. For one (S2238) the straight line fits only up to mOD˜650.

[2] = biological target: T1, thrombin; experiment: Km of chromogenic thrombin substrates, obtained in buffer; details: obtained in buffer and not in plasma
From the text: (NB: The Km values have been obtained in buffer and not in plasma but any value of Km between 0.5 and 2 times the present one would have allowed similar conclusions as to the suitability in thrombingenration experiments)

[3] = biological target: T1, thrombin; experiment: Diagnostic plot of fluorogenic substrates measured in bulk fluid, to judge use in thrombin generation measurement; parameters: from tissue; host or cells: blood plasma of healthy human donors; details: 1 mM substrate, judged from the diagnostic plot
Experimental: The development of fluorescence intensity from aminomethylcoumarine (AMC) is typically measured in a 96-well plate fluorometer (Ascent reader, Thermolabsystems OY, Helsinki Finland) equipped with a 390/460 filter set (excitation/emission) and a dispenser. Immulon 2HB, round-bottom 96-well plates (Dynex) are used. Minimally four readings are done per minute and experiments are carried out in quadruplicate unless otherwise indicated.
To each well, 80 μl of plasma is added. Wells in which TG is measured receive 20 μl of buffer, containing the trigger but no Ca^2+.
Wells in which constant thrombin-like activity is to be measured receive 20 μl of the α2M-thrombin solution at the required concentration as indicated. For PPP, the trigger is 30 pM of recombinant tissue factor (TF) and 24 μM phosphatidyl-serine/phosphatidyl-choline/phosphatidyl-ethanolamine vesicles in Hepes-buffered saline. For PRP the trigger is 20 μl of 3 pM of rTF without added PL.
The plate is placed in the fluorometer and allowed to warm to 37° C. (minimally 15 min). The dispenser of the fluorometer is flushed with warm 100 mM CaCl2 solution, emptied, and then flushed with a prewarmed (37° C.) solution of the substrate in Hepes buffer with 60 g/L bovine serum albumin (FluCa). At the start of the experiment, the instrument dispenses 20 μl of FluCa to all the wells to be measured, registers this as zero time, shakes them for 10 s and starts reading.
A similar approach as that of example 4 can be applied to fluorogenic substrates. The substrates, previously described in ref [35] were, from left to right are BZ-Phe-Val-Arg-AMC, Z-Gly-Pro-Arg-AMC and Z-Pro-Arg-AMC, all tested at a concentration of 1 mM in the setup described under methods.
The scaling factor necessary to convert the arbitrary dF/dt values into nM thrombin is derived from the measurement of the amidolytic activity on a thrombin substrate of the material remaining after thrombin generation is over, as in example 3.

[4] = S 50 μM, E 250 nM (MSC), 300 nM (SQ68)
[5] = S 100 μM, E 0.4 nM (S2238), 250 nM (MSC), 300 nM (SQ68)
[6] = S 150 μM, E 250 nM (MSC), 300 nM (SQ68)

## COC(=O)CC(=O)NC(C)(C)C(=O)NC(CCCNC(=N)N)C(=O)Nc1ccc([N+](=O)[O-])cc1.Cl (stereo not drawn) [SQ68, Malonyl-α-aminoisobutyryl-arginine para-nitroanilide methyl ester-HCl]
[1]; S 50 μM
  η (enzyme potential to be expected in the thrombin generation experiment): 1.06 µM·min
[1]; [4]
  limit (limit of enzyme potential that can be measured with the substrate at the indicated concentration): >30 nM·min
[1]; S 100 μM
  η (enzyme potential to be expected in the thrombin generation experiment): 1.12 µM·min
[1]; [5]
  limit (limit of enzyme potential that can be measured with the substrate at the indicated concentration): >30 nM·min
[1]; S 150 μM
  η (enzyme potential to be expected in the thrombin generation experiment): 1.18 µM·min
[1]; [6]
  limit (limit of enzyme potential that can be measured with the substrate at the indicated concentration): >30 nM·min
[2]
  Km: 830 µM

## DEMZ-Gly-Arg-pNA
[1]; S 500 μM
  η (enzyme potential to be expected in the thrombin generation experiment): 1.58 µM·min
[1]; S 500 μM, E 50 nM
  limit (limit of enzyme potential that can be measured with the substrate at the indicated concentration): >2 nM·min
[2]
  Km: 866 µM

## NC(N)=NCCC[C@H](NC(=O)[C@@H]1CCCCN1C(=O)[C@H](N)Cc1ccccc1)C(=O)Nc1ccc([N+](=O)[O-])cc1 [S2238, HD-Phe-Pip-Arg-pNA]
[1]; FIG. 8
  OD up to which the straight line fits the diagnostic plot: ~650 mOD
[1]; S 100 μM
  η (enzyme potential to be expected in the thrombin generation experiment): 11 µM·min
[1]; [5]
  limit (limit of enzyme potential that can be measured with the substrate at the indicated concentration): 0.014 nM·min
[1]; at mOD ~650
  enzyme potential read from the plot at the OD where the straight line stops fitting: ~12.5 nM·min
[1]; due to tight binding and inhibition of natural antithrombins
  ETP to be measured in the presence of this substrate: 11000 nM·min
[1]; judged from the diagnostic plot
  suitability for the measurement of thrombin generation (chromogenic substrates): unsuitable for the measurement of thrombin generation
[2]
  Km: 10 µM

## Cc1cc(=O)oc2cc(NC(=O)[C@H](CCCN=C(N)N)NC(=O)[C@@H]3CCCN3C(=O)CNC(=O)OCc3ccccc3)ccc12 [Z-Gly-Pro-Arg-AMC] (Cbz-Gly-Pro-Arg-{AMC})
[3]
  suitability for the measurement of thrombin generation (fluorogenic substrates): turnover number that is so high as to have the substrate consumed before thrombin generation is over

## CC(C)C(NC(=O)OCCS(C)(=O)=O)C(=O)NC(CCCN=C(N)N)C(=O)Nc1ccc([N+](=O)[O-])cc1 (stereo not drawn) [MSC, Msc-Val-Arg-pNA]
[1]; S 50 μM
  η (enzyme potential to be expected in the thrombin generation experiment): 1.06 µM·min
[1]; [4]
  limit (limit of enzyme potential that can be measured with the substrate at the indicated concentration): >15 nM·min
[1]; S 100 μM
  η (enzyme potential to be expected in the thrombin generation experiment): 1.11 µM·min
[1]; [5]
  limit (limit of enzyme potential that can be measured with the substrate at the indicated concentration): >15 nM·min
[1]; S 150 μM
  η (enzyme potential to be expected in the thrombin generation experiment): 1.17 µM·min
[1]; [6]
  limit (limit of enzyme potential that can be measured with the substrate at the indicated concentration): >15 nM·min
[2]
  Km: 882 µM

## Cc1cc(=O)oc2cc(NC(=O)[C@H](CCCN=C(N)N)NC(=O)[C@@H](NC(=O)[C@H](Cc3ccccc3)NC(=O)c3ccccc3)C(C)C)ccc12 [BZ-Phe-Val-Arg-AMC] (Bz-Phe-Val-Arg-{AMC})
[3]
  suitability for the measurement of thrombin generation (fluorogenic substrates): can be used for the measurement of thrombin generation

## Cc1cc(=O)oc2cc(NC(=O)C(CCCN=C(N)N)NC(=O)C3CCCN3C(=O)OCc3ccccc3)ccc12 (stereo not drawn) [Z-Pro-Arg-AMC] (Cbz-Pro-Arg-{AMC}; configuration not given here)
[3]
  suitability for the measurement of thrombin generation (fluorogenic substrates): can be used for the measurement of thrombin generation
